27 molecules from patent US10759813B2, “Neprilysin inhibitors” (THERAVANCE BIOPHARMA R&D IP, LLC, priority 2010, dated 2020) can be followed below.

Some results are limits rather than exact numbers.

human neprilysin (EC 3.4.24.11; NEP), sequence (P08473 52-750): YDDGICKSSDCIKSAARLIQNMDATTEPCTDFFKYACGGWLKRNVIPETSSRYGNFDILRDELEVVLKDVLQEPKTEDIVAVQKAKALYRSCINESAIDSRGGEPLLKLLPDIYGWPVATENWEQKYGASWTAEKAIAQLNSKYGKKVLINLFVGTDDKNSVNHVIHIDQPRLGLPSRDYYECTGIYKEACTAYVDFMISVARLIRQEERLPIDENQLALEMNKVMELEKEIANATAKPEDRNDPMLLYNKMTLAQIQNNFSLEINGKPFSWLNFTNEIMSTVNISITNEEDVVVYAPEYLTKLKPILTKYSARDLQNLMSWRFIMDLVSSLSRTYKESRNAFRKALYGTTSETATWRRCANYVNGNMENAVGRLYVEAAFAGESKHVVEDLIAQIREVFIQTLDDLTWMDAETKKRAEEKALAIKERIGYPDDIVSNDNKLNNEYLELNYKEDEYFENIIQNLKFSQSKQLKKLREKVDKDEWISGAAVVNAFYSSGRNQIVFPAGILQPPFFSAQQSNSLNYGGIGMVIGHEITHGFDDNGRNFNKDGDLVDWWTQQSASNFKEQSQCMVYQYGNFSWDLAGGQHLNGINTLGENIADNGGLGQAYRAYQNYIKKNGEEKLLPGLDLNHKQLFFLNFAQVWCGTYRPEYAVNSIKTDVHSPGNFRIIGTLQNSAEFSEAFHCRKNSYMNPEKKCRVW

The test concerns the target human neprilysin (EC 3.4.24.11; NEP) (Homo sapiens (Human), UniProt P08473). The experiment in a line: In vitro enzyme inhibition assay at human NEP (fluorogenic peptide substrate). It counts as biochemical. To be noted: pKi values at human NEP, recombinant human NEP. Here is the method:
In Vitro Assays for the Quantitation of Inhibitor Potencies at Human and Rat NEP, and Human ACE
The inhibitory activities of compounds at human and rat neprilysin (EC 3.4.24.11; NEP) and human angiotensin converting enzyme (ACE) were determined using in vitro assays as described below.
Recombinant human NEP and recombinant human ACE were obtained commercially (R&D Systems, Minneapolis, Minn., catalog numbers 1182-ZN and 929-ZN, respectively). The fluorogenic peptide substrate Mca-D-Arg-Arg-Leu-Dap-(Dnp)-OH (Medeiros et al. (1997) Braz. J. Med. Biol. Res. 30:1157-62; Anaspec, San Jose, Calif.) and Abz-Phe-Arg-Lys(Dnp)-Pro-OH (Araujo et al. (2000) Biochemistry 39:8519-8525; Bachem, Torrance, Calif.) were used in the NEP and ACE assays respectively.
The assays were performed in 384-well white opaque plates at 37° C. using the fluorogenic peptide substrates at a concentration of 10 μM in Assay Buffer (NEP: 50 mM HEPES, pH 7.5, 100 mM NaCl, 0.01% polyethylene glycol sorbitan monolaurate (Tween-20), 10 μM ZnSO4; ACE: 50 mM HEPES, pH 7.5, 100 mM NaCl, 0.01% Tween-20, 1 μM ZnSO4).
Test compounds were assayed over the range of concentrations from 10 μM to pM. Test compounds were added to the enzymes and incubated for 30 minute at 37° C. prior to initiating the reaction by the addition of substrate. Reactions were terminated after 20 minutes of incubation at 37° C. by the addition of glacial acetic acid to a final concentration of 3.6% (v/v).
Plates were read on a fluorometer with excitation and emission wavelengths set to 320 nm and 405 nm, respectively. Inhibition constants were obtained by nonlinear regression of the data using the equation (GraphPad Software, Inc., San Diego, Calif.): v=v0/[1+(I/K′)] where v is the reaction rate, v0 is the uninhibited reaction rate, I is the inhibitor concentration and K′ is the apparent inhibition constant.
Compounds of the invention were tested in this assay and found to have pKi values at human NEP as follows.
By pKi is commonly meant the negative decadic logarithm of the Ki, by convention in mol/L. `O=C(N[C@H](Cc1ccc(-c2ccccc2)cc1)C[C@H](O)C(=O)O)c1cnc2[nH]nnc2c1` [Example 11-13, (2S,4R)-5-Biphenyl-4-yl-2-hydroxy-4-[(3H-[1,2,3]triazolo[4,5-b]pyridine-6-carbonyl)-amino]-pentanoic acid]: the negative-log Ki (pKi) is at least 9.0.

Usually Ki stands for a dissociation constant, usually derived from enzyme kinetics or from competition with a known ligand. For `O=C(O)c1ccc(C(=O)N[C@H](Cc2ccc(-c3ccccc3)cc2)CC(O)C(=O)O)o1` (stereo partly drawn) [Example 12-1, 5-((R)-1-Biphenyl-4-ylmethyl-3-carboxy-3-hydroxypropylcarbamoyl)furan-2-carboxylic acid], the inhibition constant (Ki) was 1.26 to 10 nM.

`O=C(O)c1ccc(C(=O)N[C@H](Cc2ccc(-c3ccccc3)cc2)CC(O)C(=O)O)s1` (stereo partly drawn) [Example 12-2, 5-((R)-1-Biphenyl-4-ylmethyl-3-carboxy-3-hydroxypropylcarbamoyl)thiophene-2-carboxylic acid]: the Ki was 1.26 to 10 nM.

As to `COc1cc(C(=O)N[C@H](Cc2ccc(-c3ccccc3)cc2)C[C@@H](O)C(=O)O)on1` [Example 12-3, (2R,4R)-5-Biphenyl-4-yl-2-hydroxy-4-[(3-methoxyisoxazole-5-carbonyl)amino]-pentanoic acid], the inhibition constant Ki was 1.26 to 10 nM.

In the case of `O=C(N[C@H](Cc1ccc(-c2ccccc2)cc1)C[C@@H](O)C(=O)O)c1cc(-c2ccc(Cl)cc2)no1` [Example 12-4, (2R,4R)-5-Biphenyl-4-yl-4-{[3-(4-chlorophenyl)-isoxazole-5-carbonyl]-amino}-2-hydroxy-pentanoic acid], the negative-log Ki (pKi) was at least 9.0.

For `COc1ccccc1C(=O)Nc1cc(C(=O)N[C@H](Cc2ccc(-c3ccccc3)cc2)C[C@@H](O)C(=O)O)on1` [Example 12-5, (2R,4R)-5-Biphenyl-4-yl-2-hydroxy-4-{[3-(2-methoxy-benzoylamino)-isoxazole-5-carbonyl]-amino}-pentanoic acid], the pKi was at least 9.0.

Turning to `O=C(N[C@H](Cc1ccc(-c2ccccc2)cc1)C[C@@H](O)C(=O)O)c1cc(-c2ccccc2Cl)no1` [Example 12-6, (2R,4R)-5-Biphenyl-4-yl-4-{[3-(2-chlorophenyl)-isoxazole-5-carbonyl]-amino}-2-hydroxy-pentanoic acid], the negative-log Ki (pKi) is on record as at least 9.0.

Turning to `O=C(N[C@H](Cc1ccc(-c2ccccc2)cc1)C[C@@H](O)C(=O)O)c1cc(C2CCCCC2)no1` [Example 12-7, (2R,4R)-5-Biphenyl-4-yl-4-[(3-cyclohexyl-isoxazole-5-carbonyl)-amino]-2-hydroxy-pentanoic acid], the negative-log Ki (pKi) is at least 9.0.

For `O=C(N[C@H](Cc1ccc(-c2ccccc2)cc1)C[C@@H](O)C(=O)O)c1cc(-c2cccc(F)c2)no1` [Example 12-8, (2R,4R)-5-Biphenyl-4-yl-4-{[3-(3-fluorophenyl)-isoxazole-5-carbonyl]-amino}-2-hydroxy-pentanoic acid], the negative-log Ki (pKi) is listed as at least 9.0.

Take `O=C(N[C@H](Cc1ccc(-c2ccccc2)cc1)C[C@@H](O)C(=O)O)c1cc(-c2ccccc2F)no1` [Example 12-9, (2R,4R)-5-Biphenyl-4-yl-4-{[3-(2-fluorophenyl)-isoxazole-5-carbonyl]-amino}-2-hydroxy-pentanoic acid]: the pKi is listed as at least 9.0.

With `Cn1cc(-c2cc(C(=O)N[C@H](Cc3ccc(-c4ccccc4)cc3)C[C@@H](O)C(=O)O)on2)cn1` [Example 12-10, (2R,4R)-5-Biphenyl-4-yl-2-hydroxy-4-{[3-(1-methyl-1H-pyrazol-4-yl)-isoxazole-5-carbonyl]-amino}-pentanoic acid], the Ki is 1.26 to 10 nM.

Regarding `O=C(N[C@H](Cc1ccc(-c2ccccc2)cc1)C[C@@H](O)C(=O)O)c1cc(-c2cc(Cl)ccc2Cl)no1` [Example 12-11, (2R,4R)-5-Biphenyl-4-yl-4-{[3-(2,5-dichlorophenyl)-isoxazole-5-carbonyl]-amino}-2-hydroxy-pentanoic acid], the negative logarithm of the Ki (pKi) is at least 9.0.

Consider `O=C(N[C@H](Cc1ccc(-c2ccccc2)cc1)C[C@@H](O)C(=O)O)c1cc(-c2ccc(Cl)c(Cl)c2)no1` [Example 12-12, (2R,4R)-5-Biphenyl-4-yl-4-{[3-(3,4-dichlorophenyl)-isoxazole-5-carbonyl]-amino}-2-hydroxy-pentanoic acid], for which the Ki was 1.26 to 10 nM.

In the case of `COc1ccccc1-c1cc(C(=O)N[C@H](Cc2ccc(-c3ccccc3)cc2)C[C@@H](O)C(=O)O)on1` [Example 12-13, (2R,4R)-5-Biphenyl-4-yl-2-hydroxy-4-{[3-(2-methoxy-phenyl)-isoxazole-5-carbonyl]-amino}-pentanoic acid], the pKi was at least 9.0.

Consider `O=C(O)c1cc(C(=O)N[C@H](Cc2ccc(-c3ccccc3)cc2)C[C@@H](O)C(=O)O)on1` [Example 12-14, 5-((1R,3R)-1-Biphenyl-4-ylmethyl-3-carboxy-3-hydroxy-propylcarbamoyl)-isoxazole-3-carboxylic acid], for which the inhibition constant (Ki) is 12.6 to 100 nM.

As for `COc1ccccc1-c1cc(C(=O)N[C@H](Cc2ccc(-c3ccccc3)cc2)C[C@@H](O)C(=O)O)no1` [Example 12-15, (2R,4R)-5-Biphenyl-4-yl-2-hydroxy-4-{[5-(2-methoxy-phenyl)-isoxazole-3-carbonyl]-amino}-pentanoic acid], the inhibition constant (Ki) is 1.26 to 10 nM.

In the case of `O=C(N[C@H](Cc1ccc(-c2ccccc2)cc1)C[C@@H](O)C(=O)O)c1cc(-c2ccccc2Cl)on1` [Example 12-16, (2R,4R)-5-Biphenyl-4-yl-4-{[5-(2-chlorophenyl)-isoxazole-3-carbonyl]-amino}-2-hydroxy-pentanoic acid], the negative-log Ki (pKi) is at least 9.0.

As for `O=C(N[C@H](Cc1ccc(-c2ccccc2)cc1)C[C@@H](O)C(=O)O)c1cc(-c2ccc(Cl)cc2)on1` [Example 12-17, (2R,4R)-5-Biphenyl-4-yl-4-{[5-(4-chlorophenyl)-isoxazole-3-carbonyl]-amino}-2-hydroxy-pentanoic acid], the Ki was 1.26 to 10 nM.

For the molecule `COc1cccc(-c2cc(C(=O)N[C@H](Cc3ccc(-c4ccccc4)cc3)C[C@@H](O)C(=O)O)no2)c1` [Example 12-18, (2R,4R)-5-Biphenyl-4-yl-2-hydroxy-4-{[5-(3-methoxy-phenyl)-isoxazole-3-carbonyl]-amino}-pentanoic acid], the Ki was 1.26 to 10 nM.

Regarding `O=C(N[C@H](Cc1ccc(-c2ccccc2)cc1)C[C@@H](O)C(=O)O)c1cc(CN2CCOCC2)on1` [Example 12-19, (2R,4R)-5-Biphenyl-4-yl-2-hydroxy-4-[(5-morpholin-4-ylmethyl-isoxazole-3-carbonyl)-amino]-pentanoic acid], the Ki was 12.6 to 100 nM.

Regarding `COc1ccc(-c2cc(C(=O)N[C@H](Cc3ccc(-c4ccccc4)cc3)C[C@@H](O)C(=O)O)no2)cc1` [Example 12-20, (2R,4R)-5-Biphenyl-4-yl-2-hydroxy-4-{[5-(4-methoxy-phenyl)-isoxazole-3-carbonyl]-amino}-pentanoic acid], the Ki is 1.26 to 10 nM.

As for `O=C(N[C@H](Cc1ccc(-c2ccccc2)cc1)C[C@@H](O)C(=O)O)c1cc(-c2ccccc2O)on1` [Example 12-21, (2R,4R)-5-Biphenyl-4-yl-2-hydroxy-4-{[5-(2-hydroxy-phenyl)-isoxazole-3-carbonyl]-amino}-pentanoic acid], the pKi is at least 9.0.

As for `O=C(N[C@H](Cc1ccc(-c2ccccc2)cc1)C[C@@H](O)C(=O)O)c1cc(NC(=O)c2ccccc2Cl)on1` [Example 12-22, (2R,4R)-5-Biphenyl-4-yl-4-{[5-(2-chlorobenzoylamino)-isoxazole-3-carbonyl]-amino}-2-hydroxy-pentanoic acid], the pKi is given as at least 9.0.

In the case of `O=C(N[C@H](Cc1ccc(-c2ccccc2)cc1)C[C@@H](O)C(=O)O)c1cnc(-c2ccccc2)o1` [Example 12-23, (2R,4R)-5-Biphenyl-4-yl-2-hydroxy-4-[(2-phenyl-oxazole-5-carbonyl)-amino]-pentanoic acid], the Ki is 1.26 to 10 nM.

Take `CC(=O)Nc1ncc(C(=O)N[C@H](Cc2ccc(-c3ccccc3)cc2)C[C@@H](O)C(=O)O)s1` [Example 12-24, (2R,4R)-4-[(2-Acetylamino-thiazole-5-carbonyl)-amino]-5-biphenyl-4-yl-2-hydroxy-pentanoic acid]: the Ki was 12.6 to 100 nM.

Take `COc1ccccc1C(=O)Nc1nc(C(=O)N[C@H](Cc2ccc(-c3ccccc3)cc2)C[C@@H](O)C(=O)O)cs1` [Example 12-25, (2R,4R)-5-Biphenyl-4-yl-2-hydroxy-4-{[2-(2-methoxy-benzoylamino)-thiazole-4-carbonyl]-amino}-pentanoic acid]: the Ki is 12.6 to 100 nM.

Regarding `O=C(N[C@H](Cc1ccc(-c2ccccc2)cc1)C[C@@H](O)C(=O)O)c1nc(-c2ccccc2Cl)no1` [Example 12-26, (2R,4R)-5-Biphenyl-4-yl-4-{[3-(2-chlorophenyl)-[1,2,4]oxadiazole-5-carbonyl]-amino}-2-hydroxy-pentanoic acid], the Ki was 1.26 to 10 nM.
